Test system: C. elegans
Experiment: C. elegans chemotaxis assay in the microfluidic biosensor
Assay type: in vivo, Caenorhabditis elegans
Conditions: for nematode chemotaxis score: single substance at lower concentrations, corresponding to metastatic cancer, heat maps FIGS. 7C and 7D; for CIPBS level (chemotaxis index relative to PBS): CI level of PBS buffer standards defined as 1, FIG. 3B
Protocol: It was cultured in the OP50, a strain of Escherichia coli used to maintain C. elegans cultures, with nematode growth media (NGM) plate. Before each biosensing assay, the viability of C. elegans was assessed by probing with an inoculation needle.
All materials required for performing biosensing assay in the present biosensing system should be kept at room temperature before loading C. elegans into the biosensor to maintain their viability. Briefly, medium supernatants at −80° C. and biosensor initially stored in a 4° C. freezer were thawed at room temperature. Adult C. elegans were collected in 1.5 mL tubes and washed twice with phosphate-buffered saline (PBS) buffer (Gibco, Waltham, MA, USA) before assay. All clinical samples to be tested were transported at room temperature, and the biosensing assay should be completed within 4 hours from the time of collection. The clinical samples should be mixed well before loading, and about 1 ml of the sample was taken into a 1.5 ml tube for each biosensing assay. The remaining samples could be sealed and stored at −80° C. for further use.
During each biosensing assay, approximately 50-100 μl of PBS containing 100 C. elegans was gently pipetted into the middle of the second layer where the organism loading region is disposed without compromising the viability of C. elegans and disrupting the integrity of the NGM agar, thereby increasing the reliability of the biosensing assay results. Once the C. elegans were settled, the pressure pump was started immediately to flow the test samples, comparative sample and/or negative control to the corresponding bio-incubation chambers from the fluid inlets at the first layer and through different fluid channels to reach the second layer without damaging the NGM agar integrity. In certain embodiments, an optimal flow rate of the fluid applied to the biosensor is about 0.5 mL/min. […] By this optimal flow rate, all fluid channels can be primed in 1 min and about 10 to 100 μl droplets can be formed at each fluid outlet of the fluid channels. Because of that, the volume of the test samples applied in each fluid inlet at each round of biosensing assay can be less than 1 mL. […]
To standardize the quantitative readouts, a chemotaxis index (CI) relative to the CI measured from PBS (CIPBS) was derived by the following Equation:
The CIPBS level readouts were evaluated with the present biosensing system using a range of glutamate concentration levels that included concentrations detected from MCF-7 and MDA-MB-231 clusters (0.02 mg/ml, 0.04 mg/ml, 0.06 mg/ml, 0.08 mg/ml, and 0.1 mg/ml) (FIG. 3A). CI level readouts were modified for parallel comparison of all concentrations, with the CI level obtained from PBS buffer standards defined as 1.

Structure (SMILES) | nematode chemotaxis score | CIPBS level (chemotaxis index relative to PBS) (glutamate concentration 0.02 mg/ml) | CIPBS level (chemotaxis index relative to PBS) (glutamate concentration 0.1 mg/ml (highest tested))
NC(N)=O [urea] | around 6 |  | 
N[C@@H](CCC(=O)O)C(=O)O [glutamate] |  | 3.6±0.03 | 1.1±0.04
O=C(O)[C@@H]1CCCN1 [L-proline] | around 6 |  | 

From US20240157358A1, “BIOSENSING SYSTEM AND METHOD FOR IN-SITU DETERMINATION OF METASTASIS IN A SAMPLE” (City University of Hong Kong, priority 2022, published 2024)
